Experimental findings from publication PMC7985297 (Communications Biology, 2021) are described below.

For data set [1], the target named is T1, recombinant human Pin1 protein (Homo sapiens, UniProt Q13526).
T1 construct: purchased Abcam ab51230
The data set is described as follows: Pin1 inhibition assay (fluorometric isomerase activity). The class given is biochemical. Particulars: compounds 0–50 µM, 500 ng Pin1, Supplementary Fig. 2. The protocol: The effect of inhibitors on Pin1 isomerase activity was evaluated using a fluorometric Pin1 Assay Kit (AnaSpec, Fremont, California), according to the manufacturer’s protocol. […] Fluorescence intensity was measured with excitation wavelength at 490 nm and emission wavelength at 520 nm on an Infinite M1000 plate reader (Tecan, Männedorf, Switzerland) at 37 °C. Measurements were recorded every 5 min for up to 1 h.
Fluorescent polarization-based assay
the isomerase activity of Pin1. Each reaction contains 500 ng of
recombinant human Pin1 protein incubated with an inhibitor and a
fluorogenic substrate at 37°C. The uncatalyzed reaction represents
the intrinsic cis/trans isomerization of the substrate without Pin1
separate experiments with the correlation performed in duplicate
wells. RFU, relative fluorescent units.
(1 picture or pasted object on this page, not shown here)

The test system of another data set is PC-3 cells. The experiment in a line: BrdU incorporation assay, PC-3. It is filed as cell-based, human. Particulars: ATRA 10 µM; for BrdU incorporation, PC-3 (Fig. 4c): − R1881, ENZ 10 µM, EPI-002 25 µM, JUG 20 µM. As for the experimental part:
Cells were treated with the inhibitors and stimulated with 1 nM of R1881 (+) or vehicle (−) for 24 to 72 h. Each data point represents the average from an independent experiment where the error bars show the mean ± s.e.m.
BrdU incorporation was determined with the colorimetric BrdU ELISA kit (Roche Diagnostics), according to the manufacturer’s protocol. In brief, cells were seeded in 96-well plates (LNCaP, 5000/well; LN95, 8000/well; PC-3 and DU145, 4000/wells) in media with reduced serum (0.5–1%). On the following day, cells were pre-treated with test compounds for 1 h and then incubated with 0.1 nM of R1881. After the indicated incubation times, cells were labeled with 10 μM of BrdU for 2 h and then fixed for the assay.
Background: Dividing cells build labelled thymidine or BrdU into new DNA.

The next data set has as its system LN95-D3 cells. The experiment in a line: Cell cycle analysis by flow cytometry, LN95-D3 subline. It is filed as cell-based, human. Particulars: LN95-D3, absence of androgen, 48 h.
Data set [2] can be described thus: Body weight and tolerability in the xenograft study. It is filed as in vivo, mice. As to conditions: ATRA 5mg.
The test system of data set [3] is Pin1, Cyclin D1, Skp2 and AR in LN95-D3 tumors. The experiment in a line: Western blot of harvested LN95-D3 xenograft tumors (Pin1, Cyclin D1, Skp2, AR). It is filed as in vivo, mice. As to conditions: ATRA pellets compared to placebo. As for the experimental part:
Scale bars represent 5 mm (f) western blot analysis showing the expression of Pin1, Cyclin D1, Skp2, and AR from representative tumors. Quantification of the data is shown for g Pin1 and h Skp2, where the error bars represent the mean ± s.e.m.
All experiments involving animals conform to the relevant regulatory and ethical standards and were approved by the University of British Columbia Animal Care Committee (A18-0077). Metacam (1 mg/kg, 0.05 mL/10 g of body weight) was administered subcutaneously prior to any surgery. Animals were anesthetized with isoflurane and euthanized by CO2. Six–eight-week-old male (NOD-scid IL2Rgamma^null) mice were maintained in the Animal Care Facility at the British Columbia Cancer Research Centre. Mice were castrated 2 weeks before they were subcutaneously inoculated in the right flank with two million LN95-D3 cells in a 1:1 volume of matrigel (Corning Discovery Labware, Corning, NY). […] Tumors were excised 1 day after the last dose and prepared for western blot analysis and immunohistochemistry.

The test system of data set [4] is LN95 cells. The experiment in a line: Cell cycle analysis by flow cytometry, LN95. Particulars: LN95, ATRA 5 and 10 μM, EPI-002 25 μM, 24 or 48 h. (A flow cytometer gives signals particle by particle.)
Protocol: After treatments, the cells were labeled with BrdU (10 μM) for 2 h and then trypsinized, washed, and fixed in 70% EtOH/PBS at −20 °C. Approximately 2.5–5.0 × 10^5 of fixed cells were labeled with fluorescein (FITC)-conjugated anti-BrdU antibody (B44; BD Biosciences) and the DNA content was stained with 7-AAD (Sigma). The data were collected with a BD FACSCalibur flow cytometer (BD Biosciences). FITC and 7-AAD fluorescence were detected in the FL1 and FL3 channels, respectively, using CellQuest Pro and analyzed by FlowJo V10 software (Ashland, Oregon). Pre-gating was performed on all samples by plotting FL3-W × FL3-H to exclude doublets from the analysis.
In data set [5] the test system is LN95 cells. The data set is described as follows: Senescence-associated β-galactosidase staining, LN95. Particulars: 3 days.
Protocol: β-galactosidase activity at suboptimal pH (6.0) was used as a marker to detect cellular senescence[42]. Cells were seeded in four-well chamber slides at a density of 8000-10,000 cells. […] Three days later, the media was removed and cells were fixed with 2% formaldehyde/0.2% glutaraldehyde for 10 min at room temperature, washed with PBS, and then incubated with freshly prepared β-Gal staining solution (Cell Signaling) titrated to pH 6.0. Staining was optimal after incubating with the β-Gal solution at 37 °C for 16–18 h. After staining, the slides were washed twice with PBS, once with absolute methanol, and then mounted with 50% glycerol/PBS. The percentage of β-galactosidase-positive cells were counted with ImageJ using the Cell Counter plugin. A total of nine images containing 100–300 cells were scored to determine the percentages of positive cells.
The test system of data set [6] is Pin1 and cell cycle proteins in LN95 cells. The experiment in a line: Western blot of Pin1 and cell cycle proteins in LN95 cells. As to conditions: for CyclinA2 protein level (Fig. 6a) / CyclinB1 protein level (Fig. 6a) / CyclinD1 protein level (Fig. 6a) / Pin1 protein level (Fig. 6a) / p21 protein level (Fig. 6a) / p27 protein level (Fig. 6a): relative to 0 μM = 1, replicate experiments by date. A general note: Immunoblotting shows a protein as a band on a membrane.
Protocol: Data shown are the means ± s.e.m. from 3–4 independent experiments. Statistical significance was determined by ANOVA using the Dunnett’s multiple comparisons test. *P < 0.05, **P < 0.01, ***P < 0.001.
For western blot analyses, membranes were blocked with 5% non-fat milk in phosphate-buffered saline containing 0.1% Tween-20 (PBS-T) and then incubated overnight at 4 °C with primary antibody (1:200–5000) in PBS-T containing 5% non-fat milk or 2% BSA. After incubation with the primary antibody, the membrane was washed three times with TBS-T, incubated with a horseradish peroxidase-conjugated antibody secondary antibody (1:5000–10,000) for 1–2 h at room temperature, and washed three times with PBS-T and two more times with PBS before chemiluminescence was detected with ECL Prime Reagent (GE Healthcare Life Science, Mississauga, ON). Western blot images were captured using the ChemiDoc MP Imaging System (Bio-Rad Laboratories, Hercules, CA) and quantified using ImageJ software.

In data set [7] the target is T2, AR interaction with STAT3 (Homo sapiens, UniProt P10275, T878A).
T2 construct: Endogenous STAT3 complexes were co-immunoprecipitated from LNCaP cells treated with juglone and IL-6; endogenous in cells; host or cells: LNCaP
T2 sequence (P10275 whole entry T878A): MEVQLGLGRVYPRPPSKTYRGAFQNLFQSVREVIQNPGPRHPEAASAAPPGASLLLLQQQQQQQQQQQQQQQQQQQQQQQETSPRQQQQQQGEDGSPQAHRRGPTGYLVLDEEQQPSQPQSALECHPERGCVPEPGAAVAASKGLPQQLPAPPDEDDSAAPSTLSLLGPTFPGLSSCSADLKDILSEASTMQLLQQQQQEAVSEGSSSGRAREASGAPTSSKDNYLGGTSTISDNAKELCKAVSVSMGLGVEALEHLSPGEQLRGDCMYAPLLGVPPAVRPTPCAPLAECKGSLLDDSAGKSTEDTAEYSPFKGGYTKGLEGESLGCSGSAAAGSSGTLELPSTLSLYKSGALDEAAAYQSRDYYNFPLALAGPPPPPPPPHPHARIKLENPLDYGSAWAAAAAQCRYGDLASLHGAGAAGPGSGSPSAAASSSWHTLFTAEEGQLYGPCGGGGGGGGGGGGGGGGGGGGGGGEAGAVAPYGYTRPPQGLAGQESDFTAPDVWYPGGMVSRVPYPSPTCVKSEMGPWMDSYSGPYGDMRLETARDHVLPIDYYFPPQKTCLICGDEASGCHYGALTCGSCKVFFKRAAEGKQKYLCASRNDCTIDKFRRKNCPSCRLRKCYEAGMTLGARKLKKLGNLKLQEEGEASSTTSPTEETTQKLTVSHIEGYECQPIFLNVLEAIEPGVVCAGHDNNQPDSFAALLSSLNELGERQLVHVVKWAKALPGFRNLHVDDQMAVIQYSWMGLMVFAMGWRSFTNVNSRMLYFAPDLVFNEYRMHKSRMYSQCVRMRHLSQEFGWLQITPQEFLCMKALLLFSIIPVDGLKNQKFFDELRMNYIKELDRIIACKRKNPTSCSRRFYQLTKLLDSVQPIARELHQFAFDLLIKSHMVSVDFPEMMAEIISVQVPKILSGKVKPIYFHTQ
The data set is described as follows: Co-immunoprecipitation of AR with STAT3 from LNCaP cells. It is filed as cell-based. As to conditions: juglone 30 μM, IL-6 50 ng/mL, 6 h. As for the experimental part:
(§1) Fig. 3 Pin1 interacts with the AR NTD and regulates transactivation. a, b Transactivation assays performed in LNCaP cells expressing a vector encoding the human AR NTD fused to a Gal4 DNA-binding domain (Gal4-ARN). […] Input samples show Pin1 expression from lysates before the pull-down. i Co-immunoprecipitation assay showing AR protein co-immunoprecipitated with STAT3 from LNCaP cells incubated with EPI-002 (EPI, 35 μM), juglone (JUG, 30 μM), or vehicle (VEH, DMSO), and IL-6 (50 ng/mL) for 6 h. j, k Levels of phosphorylated MAPK (isoforms p44 and p42) and phosphorylated STAT3 (Tyr705 and Ser727) from LNCaP cells pre-treated with juglone (20 µM) and then stimulated with IL-6 (50 ng/mL) for 15 min. Error bars show the mean ± s.e.m. *P < 0.05, **P < 0.01, ***P < 0.001; ns not significant.

Data set [8] deals with phosphorylated MAPK (p44 and p42) and STAT3 (Tyr705 and Ser727). The data set is described as follows: Western blot of phosphorylated MAPK and STAT3 after IL-6 in LNCaP cells. It is filed as cell-based, human. As to conditions: juglone 20 µM, IL-6 50 ng/mL 15 min. The protocol: as §1

Values joined by “and” are separate entries in the source; they are usually repeats but may differ in a detail not shown here. Identical values can stand only once. “Also recorded” adds a separate entry of the source.

T1 sequence (Q13526 whole entry): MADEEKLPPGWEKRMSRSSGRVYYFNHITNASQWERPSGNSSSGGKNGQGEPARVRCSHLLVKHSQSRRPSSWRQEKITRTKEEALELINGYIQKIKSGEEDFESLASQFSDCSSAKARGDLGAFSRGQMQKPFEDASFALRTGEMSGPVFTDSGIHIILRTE

For `CC1=C(/C=C/C(C)=C/C=C/C(C)=C/C(=O)O)C(C)(C)CCC1` [ATRA, all-trans retinoic acid], the “effect on isomerase activity of Pin1” value in data set [1] is “inhibited the isomerase activity of Pin1 in a dose-dependent manner”. The “effect on proliferation of PC-3 cells” value in the data set on PC-3 cells is “did not impact the proliferation of either PC-3 or DU145 cells”. Besides, the “BrdU incorporation, PC-3 (Fig. 4c)” value in the data set on PC-3 cells was 1.204 and 0.885 and 0.987 and 1.277. The “effect on cell cycle distribution” value with LN95-D3 cells was “reduced the S phase and increased the G1 population”. Moreover, the “Body weight, individual animals (Fig. 7c)” value (“Body weight” below) in data set [2] (treatment duration 0 days) was 26.7 and 29.9 and 28.1 and 28.2 and 29.3 and 28.3 and 30.2 (2×); in data set [2] (treatment duration 1 days, in g (unit assumed)), 26.8 and 30.1 and 28.1 and 27.9 and 29.3 and 28.7 and 29 and 29.8; in [2] (treatment duration 2 days), 26.7 and 29.8 and 27.6 (2×) and 28.9 and 28.8 and 29.1 and 29.4; in data set [2] (treatment duration 3 days) it was 25.9 and 29 and 25.6 and 26.8 and 28.1 and 28.3 (2×) and 28.9; in data set [2] (treatment duration 4 days, in g (unit assumed)), 25.2 and 28.9 and 27 and 27.1 and 29.1 and 28.5 and 27.5 and 28.7; in data set [2] (treatment duration 5 days, in g (unit assumed)), 23.9 and 28.3 and 26.5 and 27 and 28.5 and 28.2 and 26.8 and 27.8. The “Body weight” value was 23.9 and 27.9 and 26.1 and 26.5 and 28.2 and 27.4 and 26.8 and 28 in [2] (treatment duration 6 days, in g (unit assumed)); 23.9 and 27.5 (2×) and 25.7 and 26.4 and 28.1 and 26.9 and 27.6 in data set [2] (treatment duration 7 days); 23.1 and 27.9 and 25.6 and 26.6 and 28.2 and 27.4 and 25.9 and 27.6 in data set [2] (treatment duration 8 days, in g (unit assumed)); 22.3 and 27.6 and 25.3 (2×) and 26.2 and 28.4 and 27.3 and 27.7 in data set [2] (treatment duration 9 days); 22.1 and 28.3 and 24.9 and 26.3 (2×) and 27.9 and 25.2 and 27.4 in [2] (treatment duration 10 days); 22 and 28 and 24.2 and 26 and 27.8 and 25.3 and 24.7 and 27.2 in data set [2] (treatment duration 11 days, in g (unit assumed)). Besides, the “Body weight” value in data set [2] (treatment duration 12 days, in g (unit assumed)) was 21.9 and 27.9 and 24.6 and 26.1. For the same compound, the “Pin1 (and cyclin D1) levels in xenografts” value in data set [3] was “decrease in Pin1 levels; also recorded: decreased levels of Pin1 and its target cyclin D1”. In addition, the “effect on cell cycle / S phase population” value with LN95 cells [4] was “reduced the S phase population in a dose- and time-dependent manner”. Further, the “effect on percentage of SA β-gal-positive cells” value in the data set with LN95 cells [5] (LN95, ATRA 10 µM) was “significantly increased the percentage of SA β-gal-positive cells for LNCaP and LN95 cells”. The “SA β-gal-positive cells” value in the data set on LN95 cells [5] (LN95, ATRA 10 μM, EPI-002 25 μM) turned out to be 37%. Moreover, the “CyclinA2 protein level (Fig. 6a)” value in data set [6] (1 μM) is 1 and 0.69 and 0.64; in data set [6] (5 μM), 0.66 and 0.01 and 1.22; in data set [6] (10 μM), 0.13 and 0 and 0.23. In addition, the “CyclinB1 protein level (Fig. 6a)” value in data set [6] (1 μM) is 1.17 and 0.87 and 1.22; in [6] (5 μM) it was 0.9 and 0.62 and 1.39; in data set [6] (10 μM), 0.63 and 0.58 and 0.55. Besides, the “CyclinD1 protein level (Fig. 6a)” value is 0.71 and 0.24 and 0.7 and 0.33 in [6] (1 μM); 0.34 and 0.13 and 0.42 and 0.23 in [6] (5 μM); 0.01 and 0.35 and 0.23 and 0.05 in [6] (10 μM). Further, the “Pin1 protein level (Fig. 6a)” value was 0.8 and 0.7 and 0.86 and 0.56 in data set [6] (1 μM); 0.63 and 0.26 and 0.56 and 0.35 in data set [6] (5 μM); 0.56 and 0.13 and 0.39 and 0.14 in data set [6] (10 μM). For the same compound, the “p21 protein level (Fig. 6a)” value was 1.19 and 0.73 and 1.3 in data set [6] (1 μM); 0.81 and 0.2 and 1.37 in data set [6] (5 μM); 1.42 and 0.19 and 0.58 in [6] (10 μM). Also, the “p27 protein level (Fig. 6a)” value in [6] (1 μM) is 0.93 and 0.87 and 1.2; in data set [6] (5 μM), 1.19 and 1.12 and 1.3; in [6] (10 μM), 1.39 and 2.2 and 1.28. Further, the “effect on cellular Pin1 protein levels” value in data set [6] (LN95, 0–10 µM) is “dose-dependent decrease in Pin1 levels”. Also, the “effect on expression of cyclins D1, A2, B1” value in data set [6] (LN95, ATRA 0–10 µM) is “significantly decreased the expression of cyclin D1 and cyclin A2; also recorded: not cyclin B1”. The “effect on levels of CDK inhibitors p27Kip1 and p21Cip1” value in data set [6] (LN95, ATRA 0–10 µM) was “selectively increased the levels of cyclin-dependent kinase (CDK) inhibitor p27^Kip1 but not p21^Cip1”.
With `O=C1C=CC(=O)c2c(O)cccc21` [juglone], the “effect on isomerase activity of Pin1” value in data set [1] is “inhibited the isomerase activity of Pin1 in a dose-dependent manner”. Moreover, the “reduction of the amount of AR interacting with STAT3” value in data set [7] was ~ 50%. For the same compound, the “effect on IL-6-induced phosphorylation of MAPK and STAT3” value in [8] is “did not prevent phosphorylation of MAPK (isoforms p44 and p42) or STAT3 (Tyr705 and Ser727)”. For the same compound, the “BrdU incorporation, PC-3 (Fig. 4c)” value in the data set on PC-3 cells (listed as JUG) is 0.17 and 0.16 and 0.171 and 0.227.
